# Reference: US11622964B2, “Method for destroying cellular mechanical homeostasis and promoting regeneration and repair of tissues and organs, and use thereof” (INSTITUTE OF ZOOLOGY, CHINESE ACADEMY OF SCIENCES, priority 2018, dated 2023)
# Columns and labels:
# [1] = system: CCl4-induced chronic severe hepatic fibrosis; test: CCl4-induced chronic severe hepatic fibrosis model; assay type: in vivo, mice; conditions: 1 mg or 3 mg per kg per day, intraperitoneal or tail vein injection, 6-8 weeks
# Method: The ICR, C57Bl/6 mice used in the experiment are purchased from SPF (Beijing) Biotechnology Co., Ltd., carbon tetrachloride is purchased from Aladdin Reagent (Shanghai) Co., Ltd. (C131583-1L), and corn oil is purchased from Sigma (C8267). 8-10 week-old female mice are selected and housed in the barrier for one week, they are randomly divided into two groups, and respectively injected with CCl4/corn oil (a volume ratio of 1:2) and corn oil. The dose of CCl4 is 2 ml/kg, twice a week for […]. After 6 weeks, the mice are anesthetized with 5% chloral hydrate, and part of the hepatic lobe is taken out, fixing with 4% paraformaldehyde, dehydrating and immersing in wax, then staining with Sirius Red (YY-R20384-100ML) kit for fibrosis, wherein the collagenous fibers are red, as shown in FIG. 3B. After successful identification of the modeling, the drug administration is performed by intraperitoneal injection or tail vein injection. […] Further, quantitative PCR is performed to identify the expression of fibrosis-related genes Acta2 (myofibroblast marker), Col1a1 (representing type I collagen), Col1a2 (representing type I collagen), Col6a1 (representing collagen), Col6a2 (representing collagen), and Vim (representing fibroblasts), as shown in FIG. 3E and FIG. 3F (continued). […]
# [2] = system: mouse hepatic stellate cells (mHSCs); test: TGF-β1-induced transformation of mouse hepatic stellate cells into myofibroblasts; assay type: cell-based; conditions: 20 μM, 3 ng/ml TGF-β1, 7 days
# From the text: (§1) In this example, cell models for in vitro fibrosis are respectively built to activate mouse hepatic stellate Cells (mHSCs, FIG. 13(B)), mouse embryonic fibroblasts (MEFs FIG. 13(C)), mouse adult liver, lung, and heart-derived primary mesenchymal cells (priMCs, FIG. 13(D)), and human hepatic stellate cells (hLX-2, FIG. 13(E)) into myofibroblasts through the induction of TGF-β1. The specific experimental procedure is as shown in FIG. 9A: a medium containing 10% serum is used for the initial cell culture; after 24 hours the medium is replaced with low serum medium (or pre-starvation treatment for 16 hours) while adding 3 ng/ml TGF-β1 with DMSO or Bleb (20 μM); after 7 days the expression of myofibroblast activation marker protein (Acta2), collagen (Col1a1, Col1a2, Col3a1, and Col1a2), and matrix metalloproteinases and inhibitors (collagenases: MmP8, and MmP13; gelatinases: MmP2, and MmP9; a metalloproteinase inhibitor: Timp1/2/3) are identified.
# [3] = system: human embryonic hepatocytes; test: In vitro amplification of human embryonic hepatocytes; assay type: cell-based; conditions: for cell amplification multiple: 12 days of passage culture (3 generations)
# Method: Resuscitation of Human Embryonic Hepatocytes: human embryonic hepatocytes are removed from a liquid nitrogen tank (aborted fetus, frozen storage date is Jan. 15, 2014, frozen stock solution is cell banker 2, frozen cell number is 2×10^7/tube), quickly placing in a 37° C. water bath; and after melting the cells are immediately inhaled into a 15 ml centrifuge tube containing 5 ml of hepatocyte medium (control group), centrifuging at 50 g, 4° C. for 5 min; the supernatant is discarded, and the cells are resuspended in 500 ul hepatocyte medium and calculated as 1.16×10^6 with a cell recovery rate of 5.8%.
# Inoculation of Human Embryonic Hepatocytes: inoculation density is 1×10^5/24 well plate, adding 500 μl hepatocyte medium (control group), hepatocyte medium containing 10 μM small molecules, and hepatocyte medium containing 20 μM small molecules respectively; 24 hours after inoculating, 3 wells of cells in each group are digested respectively to count the number of the cells, then calculating the cell adherent rate. 72 hours after inoculating, 3 wells of cells in each group are digested respectively to count the number of the cells. Multiple of the change of cell number may be obtained through dividing the number of cells at 72 hours after inoculation by the number of cells at 24 hours after inoculation. A portion of the cells per well (⅖ of the cell count) are taken for RNA extraction so as to detect human hepatocyte-related gene expression.
# The First Passage of Human Embryonic Hepatocytes: cells are respectively inoculated into a 24-well plate coated with rat tail collagen (as described above), and the inoculum density is ⅗ of the number of cells after 72 hours of primary culture; 3 duplicate wells per group. After 72 hours of cell culture, the cells are digested to count the number. Multiple of the first passage amplification may be obtained through dividing the counted number of cells by the number of cells at the time of inoculation. A portion of the cells per well (⅖ of the cell count) are taken for RNA extraction so as to detect human hepatocyte-related gene expression.
# The Second Passage of Human Embryonic Hepatocytes: cells are respectively inoculated into a 24-well plate coated with rat tail collagen (as described above), and the inoculum density is ⅗ of the number of cells after 72 hours of the first passage culture. […] After changing the medium every 2 days and continuing to culture for 144 hours (6 days), the cells are digested and counted. Multiple of the second passage amplification may be obtained through dividing the counted number of cells by the number of cells at the time of inoculation. […]
# [4] = system: mouse embryonic fibroblasts (MEFs); test: TGF-β1-induced transformation of mouse embryonic fibroblasts into myofibroblasts; assay type: cell-based
# From the text: as §1
structure (smiles),measurement,setting,value
Cc1ccc2c(c1)C(=O)[C@]1(O)CCN(c3ccccc3)C1=N2 [(−)-blebbistatin],"accumulation of collagenous fibers (Sirius red, Col I staining)",[1],inhibits
same,activation of myofibroblasts,[1],inhibits
same,TGF-β1 induced transformation into myofibroblasts and extracellular matrix synthesis,[2],significantly inhibits
same,cell amplification multiple,[3]; 20 μM Bleb medium,about 13 times
same,cell amplification multiple,[3]; 10 μm small-molecule medium,about 22.1 times
same,expression of human hepatocyte-specific genes ALB and AFP (real-time quantitative PCR),[3]; 12 days of passage culture in 10 μM and 20 μM small molecule media,still express human hepatocyte-specific genes
same,cell morphology,[3]; after 12 days of passage culture in small molecule medium,typical hepatocyte morphology
same,TGF-β1 induced transformation into myofibroblasts and extracellular matrix synthesis,"[4]; 20 μM, 3 ng/ml TGF-β1, 7 days",significantly inhibits
same,stretched state / fibrous morphology of MEFs,"[4]; compared with DMSO, S-Bleb-OB 20 μM",may destroy the stretched state
same,TGF-β1-induced myofibroblast activation,"[4]; scheme as Example 9-1, S-Bleb-OB 20 μM",have an inhibitory effect
